Test results from patent US11866450B2, “Modulators of Cystic Fibrosis Transmembrane Conductance regulator, pharmaceutical compositions, methods of treatment, and process for making the modulators” (priority 2018, dated 2024).

Target: CFTR-mediated chloride transport (Homo sapiens, UniProt P13569)
Assay type: cell-based
Conditions: enteroid cells incubated with test compound 18-24 hours, acute 10 μM forskolin and 300 nM Compound III; for Max. Activity: % of chloride transport with 3 μM Compound A, 3 μM Compound II and 300 nM acute Compound III triple combination control
In short: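 Human intestinal enteroid cells incubated with compound 18–24 h at 37° C., then membrane potential dye (FLIPR) read 15 min after chloride-free stimulation with 10 μM forskolin, 100 μM IBMX and 300 nM Compound III. AUC expressed as % of triple-combination control (3 μM Compound A, 3 μM Compound II, 300 nM Compound III).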

Sequence of CFTR-mediated chloride transport (P13569 whole entry, looked up): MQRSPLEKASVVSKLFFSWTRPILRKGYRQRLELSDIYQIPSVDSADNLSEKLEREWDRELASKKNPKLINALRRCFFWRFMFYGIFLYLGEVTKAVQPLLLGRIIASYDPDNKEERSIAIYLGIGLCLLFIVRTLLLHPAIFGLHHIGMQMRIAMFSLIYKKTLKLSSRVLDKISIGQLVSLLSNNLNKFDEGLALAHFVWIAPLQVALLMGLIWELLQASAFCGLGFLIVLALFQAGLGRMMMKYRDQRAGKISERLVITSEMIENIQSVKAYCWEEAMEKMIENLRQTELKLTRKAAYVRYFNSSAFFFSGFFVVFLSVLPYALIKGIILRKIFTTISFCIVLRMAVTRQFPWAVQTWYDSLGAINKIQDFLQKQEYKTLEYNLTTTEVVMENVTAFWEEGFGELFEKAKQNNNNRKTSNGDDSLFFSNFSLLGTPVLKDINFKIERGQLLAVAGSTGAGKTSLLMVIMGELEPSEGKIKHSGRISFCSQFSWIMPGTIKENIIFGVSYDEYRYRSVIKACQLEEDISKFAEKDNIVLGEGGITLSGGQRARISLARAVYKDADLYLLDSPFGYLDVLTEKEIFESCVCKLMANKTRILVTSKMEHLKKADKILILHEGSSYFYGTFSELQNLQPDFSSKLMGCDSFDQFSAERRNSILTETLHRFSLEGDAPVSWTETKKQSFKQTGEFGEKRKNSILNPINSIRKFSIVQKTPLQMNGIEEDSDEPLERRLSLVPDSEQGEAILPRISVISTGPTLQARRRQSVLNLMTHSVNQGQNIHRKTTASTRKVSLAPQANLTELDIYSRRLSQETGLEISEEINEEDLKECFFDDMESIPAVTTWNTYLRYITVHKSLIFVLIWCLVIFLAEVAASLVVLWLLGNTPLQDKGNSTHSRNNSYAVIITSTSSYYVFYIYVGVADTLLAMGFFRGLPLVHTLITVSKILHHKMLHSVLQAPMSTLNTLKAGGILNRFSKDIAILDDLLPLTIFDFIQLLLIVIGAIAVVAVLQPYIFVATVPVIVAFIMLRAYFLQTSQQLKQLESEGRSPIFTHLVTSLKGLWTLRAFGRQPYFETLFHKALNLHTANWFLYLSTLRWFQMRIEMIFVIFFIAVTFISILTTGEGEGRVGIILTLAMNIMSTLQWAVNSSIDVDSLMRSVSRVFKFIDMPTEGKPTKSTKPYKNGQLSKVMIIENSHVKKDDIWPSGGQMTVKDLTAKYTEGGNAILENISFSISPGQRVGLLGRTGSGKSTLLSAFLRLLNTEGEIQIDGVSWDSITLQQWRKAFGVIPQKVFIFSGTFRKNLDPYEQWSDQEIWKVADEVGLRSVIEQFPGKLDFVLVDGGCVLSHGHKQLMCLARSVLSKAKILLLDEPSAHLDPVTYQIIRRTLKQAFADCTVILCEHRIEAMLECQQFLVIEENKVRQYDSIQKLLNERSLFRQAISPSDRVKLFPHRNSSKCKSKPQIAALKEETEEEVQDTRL

| Compound | EC50 [nM] | Max. Activity |
| --- | --- | --- |
| CC1(C)C[C@H]2CCCCn3cc(cn3)S(=O)(=O)NC(=O)c3ccc(-n4ccc(OCCC5(C(F)(F)F)CC5)n4)nc3N1C2 (single isomer, unassigned) [Compound 135, 21,21-dimethyl-4-(3-{2-[1-(trifluoromethyl)cyclopropyl]ethoxy}-1H-pyrazol-1-yl)-10λ^6-thia-1,3,9,13,14-pentaazatetracyclo[17.2.1.111,14.02,7]tricosa-2,4,6,11(23),12-pentaene-8,10,10-trione] | < 1000 | +++ (+++ is >60%) |
| CC1(C)CC[C@H]2CCCNc3cccc(n3)S(=O)(=O)NC(=O)c3ccc(-n4ccc(OCCC(C5CC5)C5CC5)n4)nc3N21 (single isomer, unassigned) [Compound 136, 8-[3-(3,3-dicyclopropylpropoxy)-1H-pyrazol-1-yl]-12,12-dimethyl-2λ^6-thia-3,9,11,19,24-pentaazatetracyclo[18.3.1.05,10.011,15]tetracosa-1(23),5(10),6,8,20(24),21-hexaene-2,2,4-trione] | < 1000 | +++ (+++ is >60%) |
| CC1(C)CC[C@H]2CCCNc3cccc(n3)S(=O)(=O)NC(=O)c3ccc(-n4ccc(OCCC(C5CC5)C5CC5)n4)nc3N21 (single isomer, unassigned) [Compound 137, 8-[3-(3,3-Dicyclopropylpropoxy)-1H-pyrazol-1-yl]-12,12-dimethyl-2λ^6-thia-3,9,11,19,24-pentaazatetracyclo[18.3.1.05,10.011,15]tetracosa-1(23),5(10),6,8,20(24),21-hexaene-2,2,4-trione] | > 3000 | + (+ is <30%) |
| CN1CCC[C@H]2CN(c3nc(-n4ccc(OCCC5(C(F)(F)F)CC5)n4)ccc3C(=O)NS(=O)(=O)c3cccc1n3)C(C)(C)C2 (single isomer, unassigned) [Compound 138, 12,12,18-Trimethyl-8-(3-{2-[1-(trifluoromethyl)cyclopropyl]ethoxy}-1H-pyrazol-1-yl)-2λ^6-thia-3,9,11,18,23-pentaazatetracyclo[17.3.1.111,14.05,10]tetracosa-1(23),5(10),6,8,19,21-hexaene-2,2,4-trione] | > 3000 | + (+ is <30%) |
| CN1CCC[C@H]2CN(c3nc(-n4ccc(OCCC5(C(F)(F)F)CC5)n4)ccc3C(=O)NS(=O)(=O)c3cccc1n3)C(C)(C)C2 (single isomer, unassigned) [Compound 139, 12,12,18-trimethyl-8-(3-{2-[1-(trifluoromethyl)cyclopropyl]ethoxy}-1H-pyrazol-1-yl)-2λ^6-thia-3,9,11,18,23-pentaazatetracyclo[17.3.1.111,14.05,10]tetracosa-1(23),5(10),6,8,19,21-hexaene-2,2,4-trione] | < 1000 | +++ (+++ is >60%) |
| CC(C)(C)CCC[C@H]1CCN(c2ccc3c(n2)N2C[C@@H](CCCNc4cccc(n4)S(=O)(=O)NC3=O)CC2(C)C)C1=O (single isomer, unassigned) [Compound 145] | < 1000 | +++ (+++ is >60%) |
| CC(C)(C)CCC[C@H]1CCN(c2ccc3c(n2)N2C[C@@H](CCCNc4cccc(n4)S(=O)(=O)NC3=O)CC2(C)C)C1=O (single isomer, unassigned) [Compound 146] | < 1000 | +++ (+++ is >60%) |
| Cc1ccc2nc1S(=O)(=O)NC(=O)c1ccc(-n3ccc(OCCC4(C(F)(F)F)CC4)n3)nc1N1C[C@H](CCCN2)CC1(C)C (single isomer, unassigned) [Compound 148, 12,12,22-trimethyl-8-(3-{2-[1-(trifluoromethyl)cyclopropyl]ethoxy}-1H-pyrazol-1-yl)-2λ^6-thia-3,9,11,18,23-pentaazatetracyclo[17.3.1.111,14.05,10]tetracosa-1(23),5(10),6,8,19,21-hexaene-2,2,4-trione] | > 3000 | + (+ is <30%) |
| Cc1ccc2nc1S(=O)(=O)NC(=O)c1ccc(-n3ccc(OCCC4(C(F)(F)F)CC4)n3)nc1N1C[C@H](CCCN2)CC1(C)C (single isomer, unassigned) [Compound 149, 12,12,22-trimethyl-8-(3-{2-[1-(trifluoromethyl)cyclopropyl]ethoxy}-1H-pyrazol-1-yl)-2λ^6-thia-3,9,11,18,23-pentaazatetracyclo[17.3.1.111,14.05,10]tetracosa-1(23),5(10),6,8,19,21-hexaene-2,2,4-trione] | < 1000 | +++ (+++ is >60%) |
| Cc1cc2nn1CCC[C@H]1CN(c3nc(-n4ccc(OCCC5(C(F)(F)F)CC5)n4)ccc3C(=O)NS2(=O)=O)C(C)(C)C1 (single isomer, unassigned) [Compound 150, 13,20,20-Trimethyl-4-(3-{2-[1-(trifluoromethyl)cyclopropyl]ethoxy}-1H-pyrazol-1-yl)-10λ^6-thia-1,3,9,14,22-pentaazatetracyclo[16.2.1.111,14.02,7]docosa-2,4,6,11(22),12-pentaene-8,10,10-trione] | 1000 to 3000 | + (+ is <30%) |
| Cc1cc2nn1CCC[C@H]1CN(c3nc(-n4ccc(OCCC5(C(F)(F)F)CC5)n4)ccc3C(=O)NS2(=O)=O)C(C)(C)C1 (single isomer, unassigned) [Compound 151, 13,20,20-trimethyl-4-(3-{2-[1-(trifluoromethyl)cyclopropyl]ethoxy}-1H-pyrazol-1-yl)-10λ^6-thia-1,3,9,14,22-pentaazatetracyclo[16.2.1.111,14.02,7]docosa-2,4,6,11(22),12-pentaene-8,10,10-trione] | < 1000 | +++ (+++ is >60%) |
| CC1(C)C[C@H]2CCCn3ccc(n3)S(=O)(=O)NC(=O)c3ccc(-n4ccc(OCCC(C5CC5)C5CC5)n4)nc3N1C2 (single isomer, unassigned) [Compound 153, 4-[3-(3,3-dicyclopropylpropoxy)-1H-pyrazol-1-yl]-20,20-dimethyl-10λ^6-thia-1,3,9,14,22-pentaazatetracyclo[16.2.1.111,14.02,7]docosa-2,4,6,11(22),12-pentaene-8,10,10-trione] | > 3000 | + (+ is <30%) |
| CC1(C)C[C@H]2CCCn3ccc(n3)S(=O)(=O)NC(=O)c3ccc(-n4ccc(OCCC(C5CC5)C5CC5)n4)nc3N1C2 (single isomer, unassigned) [Compound 154, 4-[3-(3,3-dicyclopropylpropoxy)-1H-pyrazol-1-yl]-20,20-dimethyl-10λ^6-thia-1,3,9,14,22-pentaazatetracyclo[16.2.1.111,14.02,7]docosa-2,4,6,11(22),12-pentaene-8,10,10-trione] | < 1000 | +++ (+++ is >60%) |
| CC1(C)C[C@@H]2CN1c1nc(-n3ccc(OCCCC4(C(F)(F)F)CC4)n3)ccc1C(=O)NS(=O)(=O)c1cccc(n1)NCCO2 (single isomer, unassigned) [Compound 159, 12,12-dimethyl-8-(3-{3-[1-(trifluoromethyl)cyclopropyl]propoxy}-1H-pyrazol-1-yl)-15-oxa-2λ^6-thia-3,9,11,18,23-pentaazatetracyclo[17.3.1.111,14.05,10]tetracosa-1(23),5,7,9,19,21-hexaene-2,2,4-trione] | > 3000 | + (+ is <30%) |
| CC1(C)C[C@@H]2CN1c1nc(-n3ccc(OCCCC4(C(F)(F)F)CC4)n3)ccc1C(=O)NS(=O)(=O)c1cccc(n1)NCCO2 (single isomer, unassigned) [Compound 160, 12,12-dimethyl-8-(3-{3-[1-(trifluoromethyl)cyclopropyl]propoxy}-1H-pyrazol-1-yl)-15-oxa-2λ^6-thia-3,9,11,18,23-pentaazatetracyclo[17.3.1.111,14.05,10]tetracosa-1(23),5,7,9,19,21-hexaene-2,2,4-trione] | < 1000 | +++ (+++ is >60%) |
| CC1(C)C[C@@H]2CN1c1nc(-n3ccc(OCCC(C4CC4)C4CC4)n3)ccc1C(=O)NS(=O)(=O)c1cccc(n1)NCCO2 (single isomer, unassigned) [Compound 162, 8-[3-(3,3-dicyclopropylpropoxy)-1H-pyrazol-1-yl]-12,12-dimethyl-15-oxa-2λ^6-thia-3,9,11,18,23-pentaazatetracyclo[17.3.1.111,14.05,10]tetracosa-1(23),5,7,9,19,21-hexaene-2,2,4-trione] | 1000 to 3000 | ++ (++ is 30-60%) |
| CC1(C)C[C@@H]2CN1c1nc(-n3ccc(OCCC(C4CC4)C4CC4)n3)ccc1C(=O)NS(=O)(=O)c1cccc(n1)NCCO2 (single isomer, unassigned) [Compound 163, 8-[3-(3,3-dicyclopropylpropoxy)-1H-pyrazol-1-yl]-12,12-dimethyl-15-oxa-2λ^6-thia-3,9,11,18,23-pentaazatetracyclo[17.3.1.111,14.05,10]tetracosa-1(23),5,7,9,19,21-hexaene-2,2,4-trione] | < 1000 | ++ (++ is 30-60%) |
| CC1(C)C[C@H]2CCCn3ccc(n3)S(=O)(=O)NC(=O)c3ccc(-n4ccc(OCCCC5(C(F)(F)F)CC5)n4)nc3N1C2 (single isomer, unassigned) [Compound 165, 20,20-dimethyl-4-(3-{3-[1-(trifluoromethyl)cyclopropyl]propoxy}-1H-pyrazol-1-yl)-10λ^6-thia-1,3,9,14,22-pentaazatetracyclo[16.2.1.111,14.02,7]docosa-2(7),3,5,11(22),12-pentaene-8,10,10-trione] | > 3000 | + (+ is <30%) |
| CC1(C)C[C@H]2CCCn3ccc(n3)S(=O)(=O)NC(=O)c3ccc(-n4ccc(OCCCC5(C(F)(F)F)CC5)n4)nc3N1C2 (single isomer, unassigned) [Compound 166, 20,20-dimethyl-4-(3-{3-[1-(trifluoromethyl)cyclopropyl]propoxy}-1H-pyrazol-1-yl)-10λ^6-thia-1,3,9,14,22-pentaazatetracyclo[16.2.1.111,14.02,7]docosa-2(7),3,5,11(22),12-pentaene-8,10,10-trione] | < 1000 | +++ (+++ is >60%) |
